pEC50: −log10 of the molar value. Non-standard residues stand in square brackets, D forms with d. Residues, ends and D or L forms follow the SMILES beside them.
Species on record: Rattus norvegicus
Test: The compound was tested in vitro for the growth hormone release in rat pituitary cell assays
Type: functional, Pituitary gland cell
[1] = Rattus norvegicus, Pituitary gland cell

Structure (SMILES) | pEC50 [1] | pEC50 (pituitary gland cell)
Cc1noc(-c2ccccc2-c2ccc(CN3C(=O)[C@H](NC(=O)CC(C)(C)N)CCc4ccccc43)cc2)n1 | 5.98 | –
Cn1ncnc1-c1ccccc1-c1ccc(CN2C(=O)[C@H](NC(=O)CC(C)(C)N)CCc3ccccc32)cc1 | 6.58 | –
CC(C)(N)CC(=O)N[C@@H]1CCc2ccccc2N(Cc2ccc(-c3sccc3-c3nn[nH]n3)cc2)C1=O | 6.85 | –
CC(C)(N)CC(=O)N[C@@H]1CCc2ccccc2N(Cc2ccc(-c3cscc3-c3nn[nH]n3)cc2)C1=O | 6.82 | –
CC(C)(N)CC(=O)N[C@@H]1CCc2ccccc2N(Cc2ccc(-n3cccc3-c3nn[nH]n3)cc2)C1=O | 6.56 | –
CC(C)(N)CC(=O)N[C@@H]1CCc2ccccc2N(Cc2ccc(-c3ccccc3-c3nc[nH]n3)cc2)C1=O | 7.05 | –
CC(C)(N)CC(=O)N[C@@H]1CCc2ccccc2N(Cc2ccc(-c3cccnc3-c3nn[nH]n3)cc2)C1=O | 5.63 | –
COc1nsnc1-c1ccccc1-c1ccc(CN2C(=O)[C@H](NC(=O)CC(C)(C)N)CCc3ccccc32)cc1 | 5.74 | –
CC(C)(N)CC(=O)N[C@@H]1CCc2ccccc2N(Cc2ccc(-c3ccccc3-c3ncno3)cc2)C1=O | 7.52 | –
CC(C)(N)CC(=O)N[C@@H]1CCc2ccccc2N(Cc2ccc(-c3ccccc3-c3nn[nH]n3)cc2)C1=O | – | 6.90
Cc1nnc(-c2cscc2-c2ccc(CN3C(=O)[C@H](NC(=O)CC(C)(C)N)CCc4ccccc43)cc2)o1 | 6.90 | –
CC(C)(N)CC(=O)N[C@@H]1CCc2ccccc2N(Cc2ccc(-c3ccccc3C(=O)O)cc2)C1=O | 5.60 | –
C[C@H](NC(=O)[C@@H](Cc1c[nH]c2ccccc12)NC(=O)[C@@H](N)Cc1c[nH]cn1)C(=O)N[C@@H](Cc1c[nH]c2ccccc12)C(=O)N[C@H](Cc1ccccc1)C(=O)N[C@@H](CCCCN)C(N)=O (H-H[dW]AW[dF]K-NH2) | 8.70 | –

Reference: ChEMBL document CHEMBL1129871, “INVESTIGATION OF BIOISOSTERS OF THE GROWTH HORMONE SECRETAGOGUE L-692,429” (Bioorg Med Chem Lett, 1997)
